# Literature values, collected in US20240131116A1, “METHODS AND THREAPEUTIC COMBINATIONS FOR TREATING IDIOPATHIC INTRACRANIAL HYPERTENSION AND CLUSTER HEADACHES” (NBO PHARMA LLC, priority 2021, published 2024).
# Legend:
# IIH [1] = system: IIH
# [2] = all patients treated
# IIH [3] = settings: for most frequent / most common side effects / visual field grades: topiramate 100 to 150 mg daily, acetazolamide 1000 to 1500 mg/day
# [4] = human, in vivo
# [5] = in vivo
compound,measurement,setting,value
"CC(=O)Nc1nnc(S(N)(=O)=O)s1 [acetazolamide, N-(5-sulfamoyl-1,3,4-thiadiazol-2-yl) acetamide]","vision (perimetric mean deviation, papilledema grade, vision-related quality of life) versus placebo",IIH [1]; maximum tolerated dose of up to 4 g/day,improved vision
same,adverse events significantly more frequent than in placebo group,IIH [1]; up to 4 g/day,"paresthesia, dysgeusia, fatigue, decreased carbon dioxide level, nausea, vomiting, diarrhea, and tinnitus"
same,patients who discontinued treatment due to adverse events,[2],Up to 20%
same,most frequent / most common side effects,IIH [3],fatigue and tingling of the hands and feet
same,visual field grades,IIH [3],Significant improvement
"NS(=O)(=O)c1ccc(N2CCCCS2(=O)=O)cc1 [sulthiame, p-(tetrahydro-2H-1,2-thiazin-2-yl)benzenesulfonamide, S,S-dioxide]",patients with gastric complaints,[4],about 10%
L-alanyl-glycyl-L-cysteinyl-L-lysyl-L-asparagyl-L-phenylalanyl-L-phenylalanyl-L-tryptophyl-L-lysyl-L-threonyl-L-phenylalanyl-L-threonyl-L-seryl-L-cysteine (3->14)-disulfide [somatostatin],biological half-life,[5],2-3 minutes
"CC1(C)O[C@@H]2[C@@H](CO[C@@]3(COS(N)(=O)=O)OC(C)(C)O[C@@H]23)O1 [topiramate, 2,3:4,5-bis-O-(1-methylethylidene)-beta-D-fructopyranose sulfamate]","weight loss, mean",IIH [3]; during 12 months period,9.75 kg
same,most frequent / most common side effects,IIH [3],"distal paresthesias, concentration difficulties and weight loss"
same,visual field grades,IIH [3],Significant improvement
